According to patent US10246469B2, “Biaryl kinase inhibitors” (BRISTOL-MYERS SQUIBB COMPANY, priority 2015, dated 2019):

Target: T1, GST-Xa-hAAK1 (Homo sapiens, UniProt Q2M2I8)
T1 construct: GST (N); Factor Xa cleavage site (Xa) (internal); made in house
Experiment: AAK1 Kinase Assay
Assay type: biochemical
Settings: bacterially expressed GST-Xa-hAAK1 3.5 nM; ATP 22 μM; fluoresceinated peptide 1.5 μM; 3 hours at room temperature; Caliper LabChip 3000
Outline: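 Bacterially expressed GST-Xa-hAAK1 (3.5 nM) phosphorylated 1.5 μM 5-FAM peptide with 22 μM ATP in Tris pH 7.4, MgCl2, DTT, 1.6% DMSO, 3 h at room temperature. EDTA-stopped; product separated electrophoretically on Caliper LabChip. IC50 from eleven concentrations by non-linear regression.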

T1 sequence (Q2M2I8 whole entry): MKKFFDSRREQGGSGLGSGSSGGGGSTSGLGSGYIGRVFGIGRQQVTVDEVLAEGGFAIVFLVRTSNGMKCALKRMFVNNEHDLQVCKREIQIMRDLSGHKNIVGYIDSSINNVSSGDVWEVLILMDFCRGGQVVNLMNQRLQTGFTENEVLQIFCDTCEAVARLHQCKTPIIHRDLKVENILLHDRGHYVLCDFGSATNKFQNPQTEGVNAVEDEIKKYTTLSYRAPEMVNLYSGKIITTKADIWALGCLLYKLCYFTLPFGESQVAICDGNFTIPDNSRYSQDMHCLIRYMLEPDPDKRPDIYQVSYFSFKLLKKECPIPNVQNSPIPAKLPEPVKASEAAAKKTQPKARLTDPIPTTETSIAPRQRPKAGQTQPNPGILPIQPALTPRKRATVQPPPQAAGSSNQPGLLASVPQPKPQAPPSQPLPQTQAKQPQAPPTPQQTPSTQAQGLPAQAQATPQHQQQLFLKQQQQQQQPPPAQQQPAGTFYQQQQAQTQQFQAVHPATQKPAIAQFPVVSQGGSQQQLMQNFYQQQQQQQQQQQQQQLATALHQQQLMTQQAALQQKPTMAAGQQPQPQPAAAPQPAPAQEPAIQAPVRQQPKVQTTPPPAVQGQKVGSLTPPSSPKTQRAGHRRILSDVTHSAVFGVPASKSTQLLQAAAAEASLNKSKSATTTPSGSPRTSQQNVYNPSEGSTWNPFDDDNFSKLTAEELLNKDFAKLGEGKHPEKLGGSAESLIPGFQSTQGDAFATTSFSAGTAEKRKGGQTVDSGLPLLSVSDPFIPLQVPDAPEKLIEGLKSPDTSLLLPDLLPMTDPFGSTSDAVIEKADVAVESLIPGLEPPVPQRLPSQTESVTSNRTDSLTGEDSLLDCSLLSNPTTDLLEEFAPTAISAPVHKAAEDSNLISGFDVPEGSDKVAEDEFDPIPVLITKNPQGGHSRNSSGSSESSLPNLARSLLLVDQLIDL

SMILES	IC50 [nM]
CC(C)C[C@](C)(N)COc1ccc(-c2ccnc(NC(=O)c3cccs3)c2)cc1C(F)(F)F [Example 403, (S)—N-(4-(4-((2-amino-2,4-dimethylpentyl)oxy)-3-(trifluoromethyl)phenyl)pyridin-2-yl)thiophene-2-carboxamide]	0.5
CC(C)C[C@](C)(N)COc1ccc(-c2ccnc(NC3CCCOC3)c2)cc1C(F)(F)F (single isomer, unassigned) [Example 477]	50
CC(C)C[C@](C)(N)COc1ccc(-c2ccnc(NC3CCCOC3)c2)cc1C(F)(F)F (mixture of isomers) [Example 475, 4-(4-((S)-2-amino-2,4-dimethylpentyloxy)-3-(trifluoromethyl)phenyl)-N-(tetrahydro-2H-pyran-3-yl)pyridin-2-amine]	15
Cc1nccc(-c2cnc(OCC3(N)CCC3)c(C)c2)n1 [Example 347, 1-(((3-methyl-5-(2-methylpyrimidin-4-yl)pyridin-2-yl)oxy)methyl)cyclobutanamine]	964
Cc1cc(C(=O)Nc2cc(-c3ccc(OC[C@@](C)(N)CC(C)C)c(C(F)(F)F)c3)ccn2)no1 [Example 408, (S)—N-(4-(4-((2-amino-2,4-dimethylpentyl)oxy)-3-(trifluoromethyl)phenyl)pyridin-2-yl)-5-methylisoxazole-3-carboxamide]	0.5
CC(C)C[C@](C)(N)COc1ccc(-c2ccnc(NC(=O)c3ccco3)c2)cc1C(F)(F)F [Example 400, (S)—N-(4-(4-((2-amino-2,4-dimethylpentyl)oxy)-3-(trifluoromethyl)phenyl)pyridin-2-yl)furan-2-carboxamide]	0.3

Second part, the compound after the results:

IC50 [nM]	SMILES
1.8	Cc1cn2nccc(-c3ccc(OC[C@@](C)(N)CC(C)C)c(C#N)c3)c2n1 [Example 492, (S)-2-((2-amino-2,4-dimethylpentyl)oxy)-5-(2-methylimidazo[1,2-b]pyridazin-8-yl)benzonitrile]
35	CC(C)C[C@](C)(N)COc1ccc(-c2ccnc(NC3CCCOC3)c2)cc1Cl (mixture of isomers) [Example 338, 4-(4-(((S)-2-amino-2,4-dimethylpentyl)oxy)-3-chlorophenyl)-N-(tetrahydro-2H-pyran-3-yl)pyridin-2-amine]
0.8	CC(C)C[C@](C)(N)COc1ccc(-c2ccnc(NC(=O)C3=NNC(=O)CC3)c2)cc1C(F)(F)F [Example 407, (S)—N-(4-(4-((2-amino-2,4-dimethylpentyl)oxy)-3-(trifluoromethyl)phenyl)pyridin-2-yl)-6-oxo-1,4,5,6-tetrahydropyridazine-3-carboxamide]
4	Cc1nc(-c2ccnc3ccnn23)ccc1OC[C@@](C)(N)CC(C)C [Example 488, (S)-2,4-dimethyl-1-((2-methyl-6-(pyrazolo[1,5-a]pyrimidin-7-yl)pyridin-3-yl)oxy)pentan-2-amine]
6.1	CC(C)C[C@](C)(N)COc1ccc(-c2cc(=O)[nH]cn2)cc1Cl [Example 509, (S)-6-(4-((2-amino-2,4-dimethylpentyl)oxy)-3-chlorophenyl)pyrimidin-4(3H)-one]
0.3	CC(C)C[C@](C)(N)COc1ccc(-c2ccnc(NC(=O)C3CC3)c2)cc1C(F)(F)F [Example 389, (S)—N-(4-(4-((2-amino-2,4-dimethylpentyl)oxy)-3-(trifluoromethyl)phenyl)pyridin-2-yl)cyclopropanecarboxamide]
3.6	CC(C)C[C@](C)(N)COc1ccc(-c2ccnc3c2C(=O)NC3)cc1Cl [Example 417, (S)-4-(4-((2-amino-2,4-dimethylpentyl)oxy)-3-chlorophenyl)-6,7-dihydro-5H-pyrrolo[3,4-b]pyridin-5-one]
0.2	CC(C)C[C@](C)(N)COc1ccc(-c2ccnc(Nc3nccs3)n2)cc1C(F)(F)F [Example 371, (S)—N-(4-(4-((2-amino-2,4-dimethylpentyl)oxy)-3-(trifluoromethyl)phenyl)pyrimidin-2-yl)thiazol-2-amine]
